The text below walks through data of US4728655A, “Sulfonamidines, process for the production thereof and pharmaceutical compositions containing the same” (Ferrer Internacional S.A., priority 1984, dated 1988).

The target of the assay is T1, histamine H2-receptors (Rattus norvegicus, UniProt P25102).
T1 construct: histamine H2 -receptors was tested in Sprague-Dawley male rats; from tissue; host or cells: stomach of the living anesthetized Sprague-Dawley rat (in vivo perfused stomach)
The assay can be described thus: blocking activity of histamine H2-receptors: antagonism of histamine-induced gastric acid secretion (perfused stomach, pH recording) in anesthetized rats. It counts as in vivo. The note with it: iv, rapid i.v. injection (right femoral vein), histamine hydrochloride infusion 0.0552 mg/min/kg, ethyl carbamate anesthesia, male Sprague-Dawley rats. The protocol: The blocking qctivity of histamine H2 -receptors was tested in Sprague-Dawley male rats weighing 345±38 g. Animals which were subjected to a 24-hour hydric diet were tracheotomized under ethyl carbamate anesthesia (1 ml/100 g, 10% w/V i.p.). After cannulating the esophagus and stomach from duodenum, the gastric contents were drained. Then the esophageal cannual was connected to a peristaltic pump, under prior passage over a thermostatic batch at 37° C., and 1/800N sodium hydroxide solution in water flowed through. The cannula from the stomach was connected by a tube leading to a Ph-meter electrode, and the readings were graphically recorded. pH increase occurring by perfusion of the sodium hydroxide solution at 1.6 ml/min. rate is antagonized by continuous infusion of histamine hydrochloride through a catheter implanted in the right femoral vein (0.0552 mg/min/kg, 2 ml/hour). After calibrating the pH, test drugs are quickly injected into the right femoral vein. Under these conditions, the activities, expressed at ED50, of some compounds according to the present invention, are determined and set forth as follows, with cimetidine being employed for purposes of comparison: […]

Where a name gives a salt, the structure may show the parent alone.

T1 sequence (P25102 whole entry, the tested form may be a part): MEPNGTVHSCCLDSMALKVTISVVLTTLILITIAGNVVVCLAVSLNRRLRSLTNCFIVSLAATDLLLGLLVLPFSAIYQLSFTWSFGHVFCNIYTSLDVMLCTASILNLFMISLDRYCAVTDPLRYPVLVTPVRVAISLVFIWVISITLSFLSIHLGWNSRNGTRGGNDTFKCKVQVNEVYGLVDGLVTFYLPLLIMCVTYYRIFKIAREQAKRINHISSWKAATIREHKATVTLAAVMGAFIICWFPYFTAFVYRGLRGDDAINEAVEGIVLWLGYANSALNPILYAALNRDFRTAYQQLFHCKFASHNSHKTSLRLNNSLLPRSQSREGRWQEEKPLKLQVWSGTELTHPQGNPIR

`Cc1ccc(S(=O)(=O)N=CNCCSCc2csc(N=C(N)N)n2)cc1` [Ex. 1, hydrogen maleate, N-p-toluensulphonyl-N'-[2-[[[2-[(aminoiminomethyl)amino]-4-thiazolyl]methyl]thio]ethyl]formamidine hydrogen maleate] yielded an ED50 of 0.7 µmol/kg.
Molecule `NC(N)=Nc1nc(CSCCNC=NS(=O)(=O)c2ccccc2)cs1` [Ex. 2, hydrogen maleate, N-benzenesulphonyl-N'-[2-[[[2-[(aminoiminomethyl)amino]-4-thiazolyl]methyl]thio]ethyl]formamidine hydrogen maleate] gave an ED50 of 1.77 µmol/kg.
Regarding `CS(=O)(=O)N=CNCCSCc1csc(N=C(N)N)n1` [Ex. 3, hydrogen maleate, N-methansulphonyl-N'-[2-[[[2-[(aminoiminomethyl)amino]-4-thiazolyl]methyl]thio]ethyl]formamidine hydrogen maleate], the 50% effect level (ED50) was put at a dose of 1.12 µmol/kg.
`NC(N)=Nc1nc(CSCCNC=NS(=O)(=O)c2ccc([N+](=O)[O-])cc2)cs1` [Ex. 4, hydrogen maleate, N-p-nitrobenzenesulphonyl-N'-[2-[[[2-[(aminoiminomethyl)amino]-4-thiazolyl]methyl]thio]ethyl]formamidine hydrogen maleate] registered an ED50 of 0.61 µmol/kg.
Then `NC(N)=Nc1nc(CSCCNC=NS(=O)(=O)c2ccc(Cl)cc2)cs1` [Ex. 5, hydrogen maleate, N-p-chlorobenzenesulphonyl--N'-[2-[[[2-[(aminoiminomethyl)amino]-4-thiazolyl]methyl]thio]ethyl]formamidine hydrogen maleate], with 0.75 µmol/kg.

By ED50 is commonly meant the midpoint of the dose-response relation.
